Read-outs that look alike come from different tables or passages of the source.
Legend:
[1] = tested on: HL60 cells; test: CellTiter-Blue cell viability assay; type: cell-based; settings: Homo sapiens
Description: Cell viability studies were conducted using the CellTiter-Blue® (Promega, Madison, WI) assay. Briefly, HL60 cells, were seeded in a 96-well plate and maintained at 37 °C with 5% CO2 for 24 h. The cells were then exposed to test compounds at 11 concentrations ranging from 0 to 20 mM. After 72 h, cell viabilities were then determined according to the manufacturer's instructions.

[2] = target: T1, MCL-1 (Homo sapiens, UniProt Q07820); test: Fluorescence polarization competition assay (FPCA) with FITC-Bak, MCL-1; type: binding; settings: for MCL-1 inhibition in FPCA (in words): cell-free MCL-1 binding assay; for fold better MCL-1 affinity than parent compound 1: relative to compound 1
T1 construct: His6-MBP (cleaved yes); made in house; host or cells: E. coli
Description: The tagged protein was initially purified from the crude cell lysate by IMAC chromatography (GE Healthcare Life Sciences), and after dialysis to remove the imidazole the affinity tag was cleaved using PreScission Protease (GE Healthcare Life Sciences). A Sephacryl S-200 size exclusion column was used as a final purification step before the protein was concentrated with a 10 000 MWCO centrifugal filter concentrator (Millipore).
(§1) Fluorescence polarization experiments were conducted using a BMG PHERAstar FS multimode microplate reader equipped with two PMTs for simultaneous measurements of the perpendicular and parallel fluorescence emission. The assays were performed in black polypropylene 384-well microplate (Costar) with a final volume of […]. […] For the fluorescence polarization competition titrations, an equation derived by Nikolovska-Coleska et al.[16] was used to calculate the Ki from the IC50 data. All experiments were run in three biological replicates, each in triplicate.

[3] = cited from earlier work
[4] = target: T2, BCL-xL (Homo sapiens, UniProt Q07817); settings: Table 2; FPCA; read-out: K i (BCL-xL); cited from earlier work
T2 construct: (or 15 nM Bcl-xL^2-212 (R&D Systems)); b80 says SinBiological

[5] = target: T1, MCL-1; settings: Table 2; FPCA; read-out: K i (MCL-1); cited from earlier work
[6] = target: T2, BCL-xL; test: Fluorescence polarization competition assay (FPCA) with FITC-Bak, BCL-xL; type: binding; settings: for Ki: read-out: K i (BCL-xL)
Description: BCl-xL was purchased from SinBiological.
as §1

[7] = HL-60, 72 h, 10% FBS, 72 h, read-out: HL60 IC50
[8] = HL-60, 72 h, […] FBS, 72 h, read-out: HL60 IC50
[9] = Table 1, FPCA, 100 nM Mcl-1 172-327, 10 nM FITC-Bak, read-out: K i
[10] = Table 2, FPCA, read-out: K i (MCL-1)

T1 sequence (Q07820 172-327): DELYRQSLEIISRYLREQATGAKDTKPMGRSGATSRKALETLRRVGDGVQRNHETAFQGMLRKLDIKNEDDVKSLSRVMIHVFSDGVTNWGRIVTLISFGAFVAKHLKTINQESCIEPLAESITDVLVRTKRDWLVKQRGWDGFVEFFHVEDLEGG
T2 sequence (Q07817 2-212): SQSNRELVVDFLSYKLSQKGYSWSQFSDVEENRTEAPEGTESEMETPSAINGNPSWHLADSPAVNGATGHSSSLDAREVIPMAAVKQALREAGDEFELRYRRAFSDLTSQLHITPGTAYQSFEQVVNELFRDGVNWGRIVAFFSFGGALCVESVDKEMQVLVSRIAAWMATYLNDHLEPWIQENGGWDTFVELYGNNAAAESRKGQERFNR

Row | IC50 [1, 7] | IC50 [1, 8] | Ki ([2]; read-out: K i) | Ki [6] | Ki [2, 10] | Structure (SMILES) | other results
1 | > 120 µM | 18.5 µM |  |  |  | CC(C)CN(c1ccc(C(=O)O)c(O)c1)S(=O)(=O)c1ccc(Oc2ccccc2)cc1 [Compound 1] | 
2 | 76.4 µM | 68.1 µM | > 500 µM |  |  | COC(=O)c1ccc(N(CC(C)C)S(=O)(=O)c2ccc(Oc3ccccc3)cc2)cc1O [Compound 2, Methyl 2-hydroxy-4-(N-isobutyl-4-phenoxyphenylsulfonamido)benzoate] | MCL-1 inhibition in FPCA (in words) [2]: inactive
3 |  |  |  |  |  | CC(C)CN(c1ccc(C(=O)NO)c(O)c1)S(=O)(=O)c1ccc(Oc2ccccc2)cc1 [Compound 4, N,2-Dihydroxy-4-(N-isobutyl-4-phenoxyphenylsulfonamido)benzamide] | Ki [2, 9]: 70.6 ± 5.8 µM; pKa ([3]; value of the functional group): 8–9
4 | > 120 µM | 15.7 µM |  |  |  | CC(C)CN(c1ccc(-c2nn[nH]n2)cc1)S(=O)(=O)c1ccc(Oc2ccccc2)cc1 [Compound 5, N-(4-(2H-Tetrazol-5-yl)phenyl)-N-isobutyl-4-phenoxybenzenesulfonamide] | Ki [2, 9]: 3.29 ± 0.26 µM; fold better MCL-1 affinity than parent compound 1 [2]: ≥ 2 fold; pKa ([3]; value of the functional group): 4–5
5 |  |  | > 500 µM |  |  | CC(C)CN(c1ccc(-c2cc(=O)[nH]o2)cc1)S(=O)(=O)c1ccc(Oc2ccccc2)cc1 [Compound 6, N-Isobutyl-N-(4-(3-oxo-2,3-dihydroisoxazol-5-yl)phenyl)-4-phenoxybenzenesulfonamide] | MCL-1 inhibition in FPCA (in words) [2]: no inhibition; pKa ([3]; value of the functional group): 4–5
6 | > 120 µM | 9.82 µM |  |  |  | Cc1cc(Oc2ccc(S(=O)(=O)N(CC(C)C)c3ccc(O)c(C(=O)O)c3)cc2)cc(C)c1Cl [Compound 6e-OH-5, reference compound] | Ki [4]: 2.19 ± 0.19 µM; Ki [5]: 0.778 ± 0.041 µM
7 |  |  |  | 7.22 ± 1.07 µM | 2.94 ± 0.35 µM | CS(=O)(=O)NC(=O)c1ccc(N(Cc2ccccc2)S(=O)(=O)c2ccc(Oc3ccccc3)cc2)cc1O [Compound 7a, 4-(N-Benzyl-4-phenoxyphenylsulfonamido)-2-hydroxy-N-(methylsulfonyl)benzamide] | fold weaker BCL-xL inhibition than parent compound 17cd ([6]; relative to 17cd): about 4 fold; Ki [2, 9]: 2.94 ± 0.35 µM; fold better MCL-1 affinity than parent compound 1 [2]: ≥ 2 fold
8 |  |  | 1.95 ± 0.22 µM | 2.34 ± 0.22 µM |  | O=C(NS(=O)(=O)c1ccccc1)c1ccc(N(Cc2ccccc2)S(=O)(=O)c2ccc(Oc3ccccc3)cc2)cc1O [Compound 7b, 4-(N-Benzyl-4-phenoxyphenylsulfonamido)-2-hydroxy-N-(phenylsulfonyl)benzamide] | fold improvement in BCL-xL inhibitory activity ([6]; relative to 7a): 3 fold; fold better MCL-1 affinity than parent compound 1 [2]: ≥ 2 fold
9 |  |  |  | 1.05 ± 0.14 µM | 1.23 ± 0.15 µM | O=C(NS(=O)(=O)c1ccc(NCC2CCOCC2)c([N+](=O)[O-])c1)c1ccc(N(Cc2ccccc2)S(=O)(=O)c2ccc(Oc3ccccc3)cc2)cc1O [Compound 7c, 4-(N-Benzyl-4-phenoxyphenylsulfonamido)-2-hydroxy-N-((3-nitro-4-(((tetrahydro-2H-pyran-4-yl)methyl)amino)phenyl)sulfonyl)benzamide] | 
10 | > 120 µM | 7.45 µM |  | 1.82 ± 0.18 µM | 0.8 ± 0.07 µM | Cc1cc(Oc2ccc(S(=O)(=O)N(Cc3ccccc3)c3ccc(C(=O)NS(=O)(=O)c4ccc(NCC5CCOCC5)c([N+](=O)[O-])c4)c(O)c3)cc2)cc(C)c1Cl [Compound 7d, 4-(N-Benzyl-4-(4-chloro-3,5-dimethylphenoxy)phenylsulfonamido)-2-hydroxy-N-((3-nitro-4-(((tetrahydro-2H-pyran-4-yl)methyl)amino)phenyl)sulfonyl)benzamide] | 
11 |  |  | > 500 µM |  |  | CC(C)CN(c1ccc(C#N)c(O)c1)S(=O)(=O)c1ccc(Oc2ccccc2)cc1 [Compound 8, N-(4-Cyano-3-hydroxyphenyl)-N-isobutyl-4-phenoxybenzenesulfonamide] | MCL-1 inhibition in FPCA (in words) [2]: no inhibition; pKa ([3]; cyanophenol, no reference given): about 7
12 | 53.2 µM | 5.79 µM |  |  |  | Cc1cc(Oc2ccc(S(=O)(=O)N(Cc3ccccc3)c3ccc(C(=O)O)c(O)c3)cc2)cc(C)c1Cl [Compound 17cd, reference compound] | IC50 ([1]; HL-60, text of introduction, read-out: IC50, viability of human leukemia HL60 cells): 18.5 µM
13 |  |  |  |  | 1.4 ± 0.47 µM | Cc1cc(Oc2ccc(S(=O)(=O)N(Cc3ccccc3)c3ccc(O)c(C(=O)O)c3)cc2)cc(C)c1Cl [Compound 27, 5-(N-Benzyl-4-(4-chloro-3,5-dimethylphenoxy)phenylsulfonamido)-2-hydroxybenzoic acid] | Ki ([6]; Table 2, FPCA, 15 nM Bcl-xL 2-212, 10 nM FITC-Bak): 1.82 ± 0.23 µM
14 |  |  |  | 1.54 ± 0.23 µM | 1.01 ± 0.08 µM | Cc1cc(Oc2ccc(S(=O)(=O)N(Cc3ccccc3)c3ccc(O)c(C(=O)NS(=O)(=O)c4ccc(NCC5CCOCC5)c([N+](=O)[O-])c4)c3)cc2)cc(C)c1Cl [Compound 29, 5-(N-Benzyl-4-(4-chloro-3,5-dimethylphenoxy)phenylsulfonamido)-2-hydroxy-N-((3-nitro-4-(((tetrahydro-2H-pyran-4-yl)methyl)amino)phenyl)sulfonyl)benzamide] | 

Row | Structure (SMILES) | IC50 [1, 7] | IC50 [1, 8] | Ki ([2]; read-out: K i) | Ki [6] | Ki [2, 10] | other results
15 | CC(=O)OCOC(=O)c1ccc(N(CC(C)C)S(=O)(=O)c2ccc(Oc3ccccc3)cc2)cc1O [Compound 3, Acetoxymethyl 2-hydroxy-4-(N-isobutyl-4-phenoxyphenylsulfonamido)benzoate] | > 120 µM | 46.4 µM | > 500 µM |  |  | MCL-1 inhibition in FPCA (in words) [2]: inactive
